pIC50: −log10 of the molar value. Structures can show the parent of a compound that is named as a salt. Where two headings read alike, the source gives them in different places.
Experiments:
[1] = system: cultured human mast cells (CHMC), ionomycin-induced degranulation; assay: CHMC low cell density ionomycin activation: tryptase assay; type: cell-based; conditions: ionomycin activation, read-out: LD Tryptase, CHMC, Iono, 3pt
[2] = system: cultured human mast cells (CHMC), IgE-induced degranulation; assay: CHMC low cell density IgE activation: tryptase assay; type: cell-based
How it was run: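 Cord-blood CD34+-derived mucosal mast cells (SCF/IL-6 medium), 1000–1500 cells/well, preincubated with compound 1 h at 37°C, then anti-IgE stimulated 30 min at 37°C.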

[3] = low cell density CHMC, 3pt, read-out: LD Tryptase, CHMC, IgE, 3pt
[4] = low cell density CHMC, 8pt, read-out: LD Tryptase, CHMC, IgE, 8pt
[5] = low cell density CHMC, 3-point, read-out: LD Tryptase, CHMC, IgE, 3pt
[6] = low cell density CHMC, 8-point, read-out: LD Tryptase, CHMC, IgE, 8pt
[7] = Homo sapiens, Mast cell, low cell density CHMC, 3pt, read-out: LD Tryptase, CHMC, IgE, 3pt
[8] = Homo sapiens, Mast cell, low cell density CHMC, 8pt, read-out: LD Tryptase, CHMC, IgE, 8pt
[9] = CHMC low cell density, 8pt, read-out: LD Tryptase, CHMC, IgE, 8pt

COc1cc(C)c(Nc2ncc(F)c(Nc3ccc4c(c3)NC(C)(C)CO4)n2)cc1Cl [Compound 216, N2-(3-Chloro-4-methoxy-6-methylphenyl)-N4-(3,4-dihydro-3,3-dimethyl-2H,4H-benz[1,4]oxazin-6-yl)-5-fluoro-2,4-pyrimidinediamine]
pIC50 ([1]; low cell density CHMC, 3pt): < 5.00
pIC50 [2, 3]: > 5.00
pIC50 [2, 4]: > 5.00

Fc1cnc(Nc2cccc(-c3ncco3)c2)nc1Nc1ccc2c(c1)NCCO2 [Compound 217, N4-(3,4-Dihydro-2H,4H-benz[1,4]oxazin-6-yl)-5-fluoro-N2-[3-(oxazol-2-yl)phenyl]-2,4-pyrimidinediamine]
pIC50 ([1]; low cell density CHMC, 3pt): < 5.00
pIC50 [2, 3]: > 5.00
pIC50 [2, 4]: > 5.00

CC1(C)COc2ccc(Nc3nc(Nc4cccc(-c5ncco5)c4)ncc3F)cc2N1 [Compound 218, N4-(3,4-Dihydro-3,3-dimethyl-2H,4H-benz[1,4]oxazin-6-yl)-5-fluoro-N2-[3-(oxazol-2-yl)phenyl]-2,4-pyrimidinediamine]
pIC50 ([1]; low cell density CHMC, 3pt): < 5.00
pIC50 [2, 3]: > 5.00
pIC50 [2, 4]: > 5.00

Fc1cnc(Nc2ccc(-c3cnco3)cc2)nc1Nc1ccc2c(c1)NCCO2 [Compound 222, N4-(3,4-Dihydro-2H,4H-Benz[1,4]oxazin-6-yl)-5-fluoro-N2-[4-(oxazol-5-yl)phenyl]-2,4-pyrimidinediamine]
pIC50 ([1]; low cell density CHMC, 3pt): < 5.00
pIC50 [2, 3]: > 5.00
pIC50 [2, 4]: > 5.00

CC1(C)COc2ccc(Nc3nc(Nc4ccc(-c5cnco5)cc4)ncc3F)cc2N1 [Compound 223, N4-(3,4-Dihydro-3,3-dimethyl-2H,4H-benz[1,4]oxazin-6-yl)-5-fluoro-N2-[4-(oxazol-5-yl)phenyl]-2,4-pyrimidinediamine]
pIC50 ([1]; low cell density CHMC, 3pt): < 5.00
pIC50 [2, 3]: > 5.00
pIC50 [2, 4]: > 5.00

C[C@@H]1Oc2ccc(Nc3nc(Nc4ccc(-c5cnco5)cc4)ncc3F)cc2NC1=O [Compound 225]
pIC50 ([1]; low cell density CHMC, 3pt): < 5.00
pIC50 [2, 3]: > 5.00
pIC50 [2, 4]: > 5.00

CNC(=O)COc1cccc(Nc2ncc(F)c(Nc3ccc4c(n3)NC(=O)C(C)(C)O4)n2)c1 [Compound 992, N4-(2,2-Dimethyl-3-oxo-4H-5-pyrid[1,4]oxazin-6-yl)-5-fluoro-N2-[3-(N-methylamino)carbonylmethyleneoxyphenyl]-2,4-pyrimidinediamine (+)-Camphorsulfonic Acid Salt]
pIC50 ([1]; CHMC low cell density, 3pt): < 5.00

Cn1ncc2ccc(Nc3ncc(F)c(Nc4ccc5c(n4)NC(=O)C(C)(C)O5)n3)cc21 [Compound 1056, N4-(2,2-Dimethyl-3-oxo-4H-5-pyrid[1,4]oxazin-6-yl)-5-fluoro-N2-[1-methylindazol-6-yl]-2,4-pyrimidinediamine Hydrogen Chloride Salt]
pIC50 ([1]; low cell density CHMC, 3-point): < 5.00

Cc1cc(C)cc(Nc2ncc(F)c(Nc3ccc4c(n3)NC(=O)[C@H](C)O4)n2)c1 [Compound 1084, (S)—N2-(3,5-Dimethylphenyl)-5-fluoro-N4-(2-methyl-3-oxo-2H,4H-5-pyrid[1,4]oxazin-6-yl)-2,4-pyrimidinediamine]
pIC50 [2, 5]: < 5.00
pIC50 [2, 6]: > 5.00

Fc1cnc(Nc2cccc(-c3cnco3)c2)nc1Nc1ccc2c(n1)NCCO2 [Compound 1132, N4-(3,4-Dihydro-2H,4H-5-pyrid[1,4]oxazin-6-yl)-5-fluoro-N2-[3-(oxazol-5-yl)phenyl]-2,4-pyrimidinediamine]
pIC50 [2, 6]: > 5.00

CC(=O)N1CCN(c2ccc(Nc3ncc(F)c(Nc4ccc5c(n4)NCCO5)n3)cc2)CC1 [Compound 1134, N2-[4-(4-Acetylpiperazino)phenyl]-N4-(3,4-dihydro-2H,4H-5-pyrid[1,4]oxazin-6-yl)-5-fluoro-2,4-pyrimidinediamine]
pIC50 [2, 5]: > 5.00
pIC50 [2, 6]: > 5.00

CCOC(=O)N1CCN(c2ccc(Nc3ncc(F)c(Nc4ccc5c(n4)NCCO5)n3)cc2)CC1 [Compound 1135, N4-(3,4-Dihydro-2H,4H-5-pyrid[1,4]oxazin-6-yl)-N2-[4-(4-ethoxycarbonylpiperazino)phenyl]-5-fluoro-2,4-pyrimidinediamine]
pIC50 [2, 5]: > 5.00
pIC50 [2, 6]: > 5.00

Fc1cnc(Nc2cccc(N3CCOCC3)c2)nc1Nc1ccc2c(n1)NCCO2 [Compound 1136, N4-(3,4-Dihydro-2H,4H-5-pyrid[1,4]oxazin-6-yl)-5-fluoro-N2-(3-morpholinophenyl)-2,4-pyrimidinediamine]
pIC50 [2, 5]: > 5.00
pIC50 [2, 6]: > 5.00

CC(=O)N1CCN(c2cccc(Nc3ncc(F)c(Nc4ccc5c(n4)NCCO5)n3)c2)CC1 [Compound 1137, N2-[3-(4-Acetylpiperazino)phenyl]-N4-(3,4-dihydro-2H,4H-5-pyrid[1,4]oxazin-6-yl)-5-fluoro-2,4-pyrimidinediamine]
pIC50 [2, 5]: > 5.00
pIC50 [2, 6]: > 5.00

CCOC(=O)N1CCN(c2cccc(Nc3ncc(F)c(Nc4ccc5c(n4)NCCO5)n3)c2)CC1 [Compound 1138, N4-(3,4-Dihydro-2H,4H-5-pyrid[1,4]oxazin-6-yl)-N2-[3-(4-ethoxycarbonylpiperazino)phenyl]-5-fluoro-2,4-pyrimidinediamine]
pIC50 [2, 5]: > 5.00
pIC50 [2, 6]: > 5.00

CN1CCN(c2ccc(Nc3ncc(F)c(Nc4ccc5c(n4)NCCO5)n3)cc2Cl)CC1 [Compound 1197, N2-[3-Chloro-4-(4-methylpiperazino)phenyl]-N4-(3,4-dihydro-2H,4H-5-pyrid[1,4]oxazin-6-yl)-5-fluoro-2,4-pyrimidinediamine]
pIC50 [2, 3]: > 5.00
pIC50 [2, 4]: > 5.00

Cc1cc(Nc2ncc(F)c(Nc3ccc4c(n3)NCCO4)n2)ccc1N1CCN(C)CC1 [Compound 1203, N4-(3,4-Dihydro-2H,4H-5-pyrid[1,4]oxazin-6-yl)-5-fluoro-N2-[3-methyl-4-(4-methylpiperazino)phenyl]-2,4-pyrimidinediamine]
pIC50 [2, 3]: > 5.00
pIC50 [2, 4]: > 5.00

C[C@@H]1Oc2ccc(Nc3nc(Nc4ccc(C(=O)N=CC(=O)O)cc4)ncc3F)cc2NC1=O [Compound 1264]
pIC50 [2, 7]: < 5.00

C[C@H]1Oc2ccc(Nc3nc(Nc4ccc(C(=O)N=CC(=O)O)cc4)ncc3F)cc2NC1=O [Compound 1267]
pIC50 [2, 7]: < 5.00

C[C@@H]1Oc2ccc(Nc3nc(NC4=CC=CC(=CNC(=O)OC(C)(C)C)C4)ncc3F)cc2NC1=O [Compound 1276]
pIC50 [2, 7]: > 5.00
pIC50 [2, 8]: > 5.00

C[C@@H]1Oc2ccc(Nc3nc(NC4=CC=CC(=CN)C4)ncc3F)cc2NC1=O [Compound 1279]
pIC50 [2, 7]: > 5.00
pIC50 [2, 8]: > 5.00

C[C@H]1Oc2ccc(Nc3nc(Nc4cccc(CN)c4)ncc3F)cc2NC1=O [Compound 1280]
pIC50 [2, 3]: > 5.00
pIC50 [2, 4]: > 5.00

(R)—N2-[3-(N-tert-Butoxycarbonylamino)methylenephenyl]-5-fluoro-N4-(2-methyl-3-oxo-2H,4H-benz[1,4]oxazin-6-yl) [Compound 1277]
pIC50 [2, 3]: > 5.00
pIC50 [2, 4]: > 5.00

(S)-5-Fluoro-[1-(2-hydroxymethyl)-2-trifluoromethylbenzimidazol-5-yl]-N4-(2-methyl-3-oxo-2H,4H-benz[1,4]oxazin-6-yl)-2,4-pyrimidinediamine [Compound 923]
pIC50 [2, 9]: > 5.00

N2-(2-Aminocarbonylphenyl)-N4-(2,2-dimethyl-3-oxo-4H-5-pyrid[1,4]oxazin-6-yl)-5-fluoro-2,4-pyrimidinediamine [Compound 1316]
pIC50 [2, 3]: > 5.00
pIC50 [2, 4]: < 5.00

N2-(4-Aminocarbonylphenyl)-N4-(2,2-dimethyl-3-oxo-4H-5-pyrid[1,4]oxazin-6-yl)-5-fluoro-2,4-pyrimidinediamine [Compound 1315]
pIC50 [2, 3]: > 5.00

N4-(2,2-Dimethyl-3-oxo-4H-5-pyrid[1,4]oxazin-6-yl)-5-fluoro-N2-(3-methoxycarbonylppyrid-2yl)-2,4-pyrimidinediamine [Compound 1314]
pIC50 [2, 3]: > 5.00

N4-(2,2-Dimethyl-3-oxo-4H-5-pyrid[1,4]oxazin-6-yl)-5-fluoro-N2-(4-methoxycarbonylphenyl)-2,4-pyrimidinediamine [Compound 1313]
pIC50 [2, 3]: > 5.00

N4-(2,2-Dimethyl-3-oxo-4H-5-pyrid[1,4]oxazin-6-yl)-5-fluoro-[1-(2-hydroxymethyl)-2-trifluoromethylbenzimidazol-5-yl]-2,4-pyrimidinediamine [Compound 924]
pIC50 [2, 9]: > 5.00

N4-(2,2-Dimethyl-3-oxo-4H-5-pyrid[1,4]oxazin-6-yl)-N2-(1-methyl-2-trifluoromethylbenzimidazol-5-yl)-2,4-pyrimidinediamine [Compound 915]
pIC50 [2, 9]: > 5.00

N4-(2,2-Dimethyl-3-oxo-4H-N4-oxo-5-pyrido[1,4]oxazin-6-yl)-5-fluoro-N2-(3,4,5-trimethoxyphenyl)-2,4-pyrimidinediamine [Compound 1340]
pIC50 [2, 3]: > 5.00
pIC50 [2, 4]: > 5.00

N4-(2,2-Dimethyl-3-oxo-4H-benz[1,4]oxazin-6-yl)-5-fluoro-N2-{1-methyl-2-[(methylsulfonyl)methyl]benzimidazol-5-yl}-2,4-pyrimidinediamine [Compound 967]
pIC50 ([2]; CHMC low cell density, 3pt, read-out: LD Tryptase, CHMC, IgE, 3pt): > 5.00
pIC50 [2, 9]: > 5.00

N4-(2,2-Dimethyl-3-oxo-4H-benz[1,4]oxazin-6-yl)-5-fluoro-[1-(2-hydroxymethyl)-2-trifluoromethylbenzimidazol-5-yl]-2,4-pyrimidinediamine [Compound 922]
pIC50 [2, 9]: > 5.00

N4-(2,2-Dimethyl-3-oxo-4H-benz[1,4]oxazin-6-yl)-N2-(1-methyl-2-trifluoromethylbenzimidazol-5-yl)-2,4-pyrimidinediamine [Compound 913]
pIC50 [2, 9]: > 5.00

N4-[benzoxathiazin-3(4H)-one-6-yl]2-chloro-5-fluoro-4-pyrimidinea mine [Compound 319]
pIC50 [2, 3]: > 5.00

Source: patent publication US7560466B2, “Methods of treating or preventing autoimmune diseases with 2,4-pyrimidinediamine compounds” (Rigel Pharmaceuticals, Inc., priority 2003, dated 2009)
